Earlier results in patent US20220296715A1, “METHOD FOR PREVENTING PRECIPITATION OF INJECTABLE SOLUTION CONTAINING p-BORONOPHENYLALANINE” (Stella Pharma Corporation, priority 2019, published 2022).

Details: physiological pH

- solubility: very poor solubility
SMILES: N[C@@H](Cc1ccc(B(O)O)cc1)C(=O)O [p-Boronophenylalanine, p-boronophenylalanine]
